Measurements taken from ChEMBL document CHEMBL3867434, “Regiospecific Prenylation of Hydroxyxanthones by a Plant Flavonoid Prenyltransferase” (J Nat Prod, 2016).
Calls of active or inactive are those of the source. No cut-off for these calls is given here.

Test: Neuroprotective activity in human SK-N-SH cells assessed as inhibition of glutamate-induced injury by measuring cell survival at 10 uM preincubated for 4 hrs followed by glutamate addition measured after 4 hrs by MTT assay relative to control
Assay type: functional, cell-based
With `CC(C)=CCc1c(O)cc2oc3ccc(O)cc3c(=O)c2c1O` the Survival was 82.9%.
For `Oc1ccc(/C=C/c2cc(O)cc(O)c2)cc1`, the Survival was 79.9%.

Test: Neuroprotective activity in human SK-N-SH cells assessed as inhibition of glutamate-induced injury by measuring increase in cell viability at 10 uM preincubated for 4 hrs followed by glutamate addition measured after 4 hrs by MTT assay
Assay type: functional, cell-based
For `CC(C)=CCc1c(O)cc2oc3ccc(O)cc3c(=O)c2c1O`, the Activity was “Active”.
With `CC(C)=CCc1c(O)cc2oc3cc(O)c(CC=C(C)C)c(O)c3c(=O)c2c1O` the Activity was “Active”.
For `O=c1c2c(O)cc(O)cc2oc2cc(O)cc(O)c12`, the Activity was “Active”.
For `O=c1c2cc(O)ccc2oc2cc(O)cc(O)c12`, the Activity was “Active”.
For `CC(C)=CCc1c(O)cc2oc3cc(O)cc(O)c3c(=O)c2c1O`, the Activity was “Active”.
